Data taken from PubChem BioAssay (NCI).
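Method: 48-hour compound exposure of cells in 96-well plates, five concentrations, linear interpolation of endpoints. Here, GI50 denotes the concentration required for 50% inhibition of growth. TGI marks complete inhibition of growth.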

Columns and labels:
Assay in all cases: NCI-60 cell line screen, 48 h
MDA-MB-231 breast = test system: MDA-MB-231 breast
SK-MEL-2 melanoma = test system: SK-MEL-2 melanoma
CCRF-CEM leukemia = test system: CCRF-CEM leukemia
RPMI-8226 leukemia = test system: RPMI-8226 leukemia
KM12 colon = test system: KM12 colon
CAKI-1 renal = test system: CAKI-1 renal
NCI-H226 lung = test system: NCI-H226 lung
HOP-92 NSCLC = test system: HOP-92 NSCLC
SK-MEL-5 melanoma = test system: SK-MEL-5 melanoma
SK-MEL-28 melanoma = test system: SK-MEL-28 melanoma
HT29 colon = test system: HT29 colon
OVCAR-8 ovarian = test system: OVCAR-8 ovarian
SK-OV-3 ovarian = test system: SK-OV-3 ovarian
SNB-75 CNS = test system: SNB-75 CNS
UACC-62 melanoma = test system: UACC-62 melanoma
NCI-H23 lung = test system: NCI-H23 lung
SN12C renal = test system: SN12C renal
SF-539 CNS = test system: SF-539 CNS
UACC-257 melanoma = test system: UACC-257 melanoma
RXF 393 renal = test system: RXF 393 renal
MDA-MB-468 breast = test system: MDA-MB-468 breast
BT-549 breast = test system: BT-549 breast
MALME-3M melanoma = test system: MALME-3M melanoma
MDA-MB-435 = test system: MDA-MB-435
UO-31 renal = test system: UO-31 renal
M14 melanoma = test system: M14 melanoma
PC-3 prostate = test system: PC-3 prostate
LOX IMVI melanoma = test system: LOX IMVI melanoma
HS 578T breast = test system: HS 578T breast

Cn1cc(-c2cc3nc(-c4c[nH]c5ccccc45)cc(N)n3n2)c2cc(Cl)ccc21
GI50 (MDA-MB-231 breast): 2310 nM
TGI (MDA-MB-231 breast): 5.24 µM
GI50 (SK-MEL-2 melanoma): 2110 nM
TGI (SK-MEL-2 melanoma): 4.63 µM
GI50 (CCRF-CEM leukemia): 4.4 µM
TGI (CCRF-CEM leukemia): > 100 µM
GI50 (RPMI-8226 leukemia): 2940 nM
TGI (RPMI-8226 leukemia): 9.18 µM
GI50 (KM12 colon): 1990 nM
TGI (KM12 colon): 4.24 µM
GI50 (CAKI-1 renal): 1660 nM
TGI (CAKI-1 renal): 3.2 µM
GI50 (NCI-H226 lung): 16.9 µM
TGI (NCI-H226 lung): 44 µM
GI50 (HOP-92 NSCLC): 1990 nM
TGI (HOP-92 NSCLC): 4.1 µM
GI50 (SK-MEL-5 melanoma): 1980 nM
TGI (SK-MEL-5 melanoma): 4.09 µM
GI50 (SK-MEL-28 melanoma): 1700 nM
TGI (SK-MEL-28 melanoma): 3.12 µM
GI50 (HT29 colon): 1930 nM
TGI (HT29 colon): 3.99 µM
GI50 (OVCAR-8 ovarian): 2230 nM
TGI (OVCAR-8 ovarian): 5.07 µM
GI50 (SK-OV-3 ovarian): 2240 nM
TGI (SK-OV-3 ovarian): 5.62 µM
GI50 (SNB-75 CNS): 1520 nM
TGI (SNB-75 CNS): 3.06 µM
GI50 (UACC-62 melanoma): 1800 nM
TGI (UACC-62 melanoma): 3.51 µM
GI50 (NCI-H23 lung): 2260 nM
TGI (NCI-H23 lung): 5.58 µM
GI50 (SN12C renal): 1900 nM
TGI (SN12C renal): 4.15 µM
GI50 (SF-539 CNS): 1730 nM
TGI (SF-539 CNS): 3.19 µM
GI50 (UACC-257 melanoma): 1680 nM
TGI (UACC-257 melanoma): 3.25 µM
GI50 (RXF 393 renal): 1870 nM
TGI (RXF 393 renal): 3.81 µM
GI50 (MDA-MB-468 breast): 1620 nM
TGI (MDA-MB-468 breast): 3.37 µM
GI50 (BT-549 breast): 12.9 µM
TGI (BT-549 breast): 32.2 µM
GI50 (MALME-3M melanoma): 1700 nM
TGI (MALME-3M melanoma): 3.26 µM
GI50 (MDA-MB-435): 1790 nM
TGI (MDA-MB-435): 3.32 µM
GI50 (UO-31 renal): 1720 nM
TGI (UO-31 renal): 3.25 µM
GI50 (M14 melanoma): 1770 nM
TGI (M14 melanoma): 3.36 µM
GI50 (PC-3 prostate): 2970 nM
TGI (PC-3 prostate): 9.37 µM
GI50 (LOX IMVI melanoma): 1710 nM
TGI (LOX IMVI melanoma): 3.15 µM
GI50 (HS 578T breast): 2380 nM
